Source: patent US4835185A, “Immunomodulator for improving commercial performance of domestic animals” (Iowa State University Research Foundation, Inc., priority 1987, dated 1989)

Tests used:
[1] = test system: cortisol in plasma; experiment: Lamb trials: plasma cortisol; format: in vivo, lambs (sheep); details: * p<.05
Text: (§1) The lambs used in Trial 1 consisted of medium-frame crossbred wethers and ewes weighing 26 to 31 kg. The lambs used in Trial 2 consisted of medium-framced crossbred rams weighing 18 to 25 kg. Each animal was raised as a single. The lambs were housed in a temperature controlled room in individual pens with nipple waterers. When received, the lamps were vaccinated for enterotoxemia. They were allowed to adjust to the pens and the environment for 10 days. One day before the trial began, the lambs were sheared and placed on their respective dietary treatments. The lamps were allotted blocking by weight and sex into two dietary treatment groups. Growth and feed consumption were measured bi-weekly. All lamb weights were taken after a 12 to 16 hour fast. The animals were slaughtered at 50 kg in the Iowa State University Meat laboratory facilities at Ames, Iowa. At slaughter, the lamb's internal organs and wool were weighed and sampled, loin eye area and back fat measured, and carcasses separated into fat, lean, and bone.
The SMB (soybean meal-containing) and the CGM (corn-gluten-containing) diets (compositions given in Table A) were fed twice per day in quantities ensuring that feed was before the lambs at all times. The diets were calculated to be equivalent to each other with respect to metabolizable protein, ether extract, fiber, and minerals with the exception of calcium and phosphorus. […] The CGM diet was calculated to contain slightly more energy (TDN 81.7 vs. 79.0, NEm 1.88 v. 1.86, Neg. 1.23 vs. 1.22). […] The soybean meal ingredient contained about 3.5 wt % leucine, while the corn gluten meal ingredient contained about 15 wt % leucine. The CGM diet was therefore higher in leucine than the SBM diet, containing an estimated 16 wt % leucine as compared with an estimated 8 wt % leucine based on total crude protein in the diet.
^(7) Amount of cortisol in plasma (ng/ml).

[2] = test system: T lymphocytes; experiment: Lamb Trial 2: lymphocyte blastogenesis (3H-thymidine, phytohemaglutinin); format: cell-based, lambs (sheep); details: 1% KIC, * p<.05
Text: as §1
^(9) Lymphocyte blastogenesis measured by amount of ^3
H--thymidine incorporated per 2 hrs. of incubation in the presence of
phytohemaglutinin (a mitogen that stimulates Tlymphocyte division).

[3] = Dairy Cattle Trial: nitrogen balance, milk production and composition; format: in vivo, Holstein and Brown Swiss cows (cattle)
Text: Eight Holstein and four Brown Swiss cows were assigned randomly (blocking for lactation number and breed) to either a control or treatment group. Four of the Holsteins and two of the Brown Swiss were in their first lactation and all cows were between 134-283 days into lactation (mid-lactation). Cows were milked twice daily (2:30 a.m. and 2:00 p.m.).
Cows were fed ad libitum a total mixed ration twice daily (7:30 a.m. and 5:30 p.m.) with feed refusals collected before the morning feeding. The diet consisted of 31% chopped alfalfa hay, 18% corn silage, and […] (as a % of the dry matter). The grain mix was calculated to contain 1.55 Mcal NE/kg dry matter and 16% crude protein. A major portion of the grain protein was from expeller processed soybean meal with higher than usual bypass characteristics. The cows were consuming protein in excess of their normal requirements. The grain ration contained an estimated 10% leucine (total protein basis), and the complete diet contained an estimated 9% leucine (total protein basis).
During the treatment period half the cows received Na-KIC at 0.75% of the diet dry matter. KIC was fed in a mixture which consisted of Na-KIC, corn gluten meal, hydrogenated soy oil and paraffin in a ratio of 2:1.0:0.1:0.1. The mixture was extruded and formed into crumbles. At least part of the KIC may have escaped rumen degradation with this treatment. Additionally, 100 units of tocopherol were added per gram of Na--KIC to prevent oxidation of KIC. Control animals were fed an equivalent amount of the same mixture but without KIC added.
During the first two weeks of the experiment (control period; designated weeks -2 and -1), all cows received the same diet. The trial period extended over the next three weeks (weeks 1, 2, 3) during which cows received either the KIC or control mix top-dressed on their diets twice per day (half the dose in the morning, half in the evening). Throughout the experiment, daily milk yield, milk composition, and feed consumption was measured for each cow. At the end of the control period and at the end of the treatment period, uninary catheters were inserted and total urine and fecal collections were made for 48 hrs. Results of production and nitrogen balance studies were analyzed statistically using each cow as her own control. The trial effect was measured by subtracting the average control period value from the value during the treatment period. ANOVA was used to detect differences between the KIC-fed and control groups.

[4] = Laying hens: egg production and egg yolk cholesterol; format: in vivo, laying hens (chickens)
Protocol: Laying hens (69 weeks of age) were randomly assigned to either a control diet or a diet containing 0.2 wt % KIC (Na). For the next 28 days feed consumption was recorded and eggs collected. Eggs were weighed and analyzed for egg yolk cholesterol. The feed composition is shown in Table C and the results in Table D. The total protein was about 18% on a dry matter basis, and the amount of leucine was about 9% of the protein. The control diet was the same except for the omission of the KIC.

[5] = Na-KIC 0.75% of diet dry matter, pre 186

With CC(C)CC(=O)C(=O)O [KIC, alpha-ketoisocaproate] the “CORTISOL: amount of cortisol in plasma” value ([1]; Trial 1, CGM diet, 1% KIC (0%: 1.04)) was “.65 ng/mL”, the “CORTISOL: amount of cortisol in plasma” value ([1]; Trial 1, SBM diet, 1% KIC (0%: .99)) was “.83 ng/mL” and the “CORTISOL: amount of cortisol in plasma” value ([1]; Trial 2, CGM diet, 1% KIC (0%: 3.77)) was 2.43 ng/mL. For the same compound, the “CORTISOL: amount of cortisol in plasma” value ([1]; Trial 2, SBM diet, 1% KIC (0%: 2.70)) was 2.25 ng/mL, the “LYMPHOCYTE BLASTOGENESIS: amount of 3H-thymidine incorporated per 2 hrs. of incubation” value ([2]; Trial 2, CGM diet, phytohemaglutinin (0%: 6134)) was 18102 and the “LYMPHOCYTE BLASTOGENESIS: amount of 3H-thymidine incorporated per 2 hrs. of incubation” value ([2]; Trial 2, SBM diet, phytohemaglutinin (0%: 5993)) was 14625. The “Feces output, Change” value ([3]; KIC group, control +1) was -6 g N/day, the “Milk output, Change” value ([3]; KIC group, control +3) was “+9 g N/day” and the “Urine output, Change” value ([3]; KIC group, control +15) was 0 g N/day. For the same compound, the “Body storage (N balance), Change” value ([3]; KIC group, control +18) was “+26 g N/day”, the “Feed intake, Change” value ([3]; KIC group, control +37) was “+28 g N/day” and the “Milk fat yield, Change” value ([3]; KIC group, control +.00) was “+.09 kg/day”. The “Milk fat percent, Change” value ([3]; KIC group, control +.03) was “+.21%”, the “Milk protein percent, Change” value ([3]; KIC group, control +.13) was “+.11%” and the “Milk yield, Change” value ([3]; KIC group, control -.13) was “+.97 kg/day”. For the same compound, the “Milk protein percent, Post” value ([3]; Na-KIC 0.75% of diet dry matter, pre 3.35) was 3.46%, the “Milk fat percent, Post” value ([3]; Na-KIC 0.75% of diet dry matter, pre 4.07) was 4.27% and the “Milk yield, Post” value ([3]; Na-KIC 0.75% of diet dry matter, pre 23.0) was 23.9 kg/day. For the same compound, the “Body storage (N balance), Post” value ([3]; Na-KIC 0.75% of diet dry matter, pre 34) was 60 g N/day, the “Milk output, Post” value ([3]; Na-KIC 0.75% of diet dry matter, pre 131) was 140 g N/day and the “Feces output, Post” value [3, 5] was 180 g N/day. The “Urine output, Post” value [3, 5] was 186 g N/day, the “Feed intake, Post” value ([3]; Na-KIC 0.75% of diet dry matter, pre 538) was 566 g N/day and the “Milk fat yield, Post” value ([3]; Na-KIC 0.75% of diet dry matter, pre printed 92) was 1.00 kg/day. The “milk fat yield increase” value ([3]; above controls, p<0.02) was 10%, the higher milk yields ([3]; vs control cows) was “+5%” and the “higher percent milk fat” value ([3]; vs control cows, p<0.04) was “+4%”. The “Body storage (N balance), % Change” value ([3]; vs control, NS) was “+24%”, the “Body storage (N balance), KIC effect” value ([3]; vs control, NS) was “+8 g N/day” and the “Feces output, % Change” value ([3]; vs control, NS) was -4%. For the same compound, the “Feces output, KIC effect” value ([3]; vs control, NS) was -8 g N/day, the “Feed intake, % Change” value ([3]; vs control, NS) was -2% and the “Feed intake, KIC effect” value ([3]; vs control, NS) was -9 g N/day. The “Milk output, % Change” value ([3]; vs control, NS) was “+5%”, the “Milk output, KIC effect” value ([3]; vs control, NS) was “+6 g N/day” and the “Milk protein percent, KIC effect” value ([3]; vs control, NS) was “-.03%”. The “Urine output, % Change” value ([3]; vs control, NS) was -85, the “Urine output, KIC effect” value ([3]; vs control, NS) was -15 g N/day and the “Milk fat yield, % Change” value ([3]; vs control, p < .01) was “+10.4%”. For the same compound, the “Milk fat yield, KIC effect” value ([3]; vs control, p < .01) was “+.09 kg/day”, the “Milk fat percent, % Change” value ([3]; vs control, p < .04) was “+4.3%” and the “Milk fat percent, KIC effect” value ([3]; vs control, p < .04) was “+.17%”. For the same compound, the “Milk yield, % Change” value ([3]; vs control, p < .15) was “+5.1%”, the “Milk yield, KIC effect” value ([3]; vs control, p < .15) was “+1.10 kg/day” and the “Av. Eggs” value ([4]; 0.2 wt % KIC (Na), 28 days (control 1.105)) was 1.233 kg./hen. The “Average No. Eggs/Hen” value ([4]; 0.2 wt % KIC (Na), 28 days (control 17.7)) was 19.5, the “Feed Average” value ([4]; 0.2 wt % KIC (Na), 28 days (control 109)) was 109 gms/hen/day and the “Avg. yolk Cholesterol” value ([4]; 0.2 wt % KIC (Na), 28 days (control 1068)) was 996 mg/100 gms. The “Av. Eggs (kg./hen), % Change” value ([4]; vs control) was “+11.1%”, the “Average No. Eggs/Hen, % Change” value ([4]; vs control) was “+10.2%” and the “Avg. yolk Cholesterol, % Change” value ([4]; vs control) was -7%. For the same compound, the “Feed Average, % Change” value ([4]; vs control) was 0%.
